According to PubChem BioAssay (NCI):
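Values below derive from 48-hour exposures of cells grown in 96-well plates, with endpoints linearly interpolated between the two concentrations bracketing the appropriate inhibition level. The concentration for 50% growth inhibition is given as GI50. TGI is the concentration that stops growth completely.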

How the values were obtained:
Assay in all cases: NCI-60 cell line screen, 48 h
K-562 leukemia = system: K-562 leukemia
SF-268 CNS = system: SF-268 CNS
NCI-H522 lung = system: NCI-H522 lung
SF-539 CNS = system: SF-539 CNS
OVCAR-8 ovarian = system: OVCAR-8 ovarian
786-0 renal = system: 786-0 renal
NCI-H226 lung = system: NCI-H226 lung
KM12 colon = system: KM12 colon
SK-MEL-5 melanoma = system: SK-MEL-5 melanoma
CCRF-CEM leukemia = system: CCRF-CEM leukemia

Row | Structure (SMILES) | GI50 (K-562 leukemia) [µM] | TGI (K-562 leukemia) [µM] | GI50 (SF-268 CNS) [µM] | TGI (SF-268 CNS) [µM] | GI50 (NCI-H522 lung) [µM] | TGI (NCI-H522 lung) [µM] | GI50 (SF-539 CNS) [µM] | TGI (SF-539 CNS) [µM] | GI50 (OVCAR-8 ovarian) [µM] | TGI (OVCAR-8 ovarian) [µM] | GI50 (786-0 renal) [µM] | TGI (786-0 renal) [µM] | GI50 (NCI-H226 lung) [µM] | TGI (NCI-H226 lung) [µM] | GI50 (KM12 colon) [µM] | TGI (KM12 colon) [µM] | GI50 (SK-MEL-5 melanoma) [µM] | TGI (SK-MEL-5 melanoma) [µM] | TGI (CCRF-CEM leukemia) [µM]
1 | OB([O][Hg][c]1ccccc1)[O][Hg][c]1ccccc1 | 0.234 | 4.96 | 1.06 | 2.5 | 0.0279 | 0.0752 | 1.09 | 2.34 | 0.522 | 3.53 | 0.281 | 0.856 | 1.52 | 4.33 | 1.59 | 3.04 | 0.538 | 1.85 | 
2 | Cc1cc(Br)cc(C)c1NC(=O)C(=O)CC(=O)c1sc(-n2nc(-c3ccccc3)cc2-c2ccccc2)nc1C |  | > 100 |  | > 100 |  | > 100 |  |  |  | > 100 |  | > 100 |  | > 100 |  | > 100 |  |  | > 100
3 | CC(=O)O[C@H]1C(=O)[C@@]2(C)C([C@H](OC(=O)c3ccccc3)[C@]3(O)C[C@H](OC(=O)[C@H](O)[C@H](NC(=O)c4ccccc4)c4ccc(Cl)cc4)C(C)=C1C3(C)C)C1(OC(C)=O)CO[C@@H]1C[C@@H]2O (stereo partly drawn) |  | 10.9 |  |  |  | 0.00369 |  | 0.0026 |  | 61.9 |  | 28.1 |  | 0.0497 |  |  |  | 1.76 | 12.9
4 | O=C1CC(=O)N(C2CCCCC2)C(=O)N1c1ccccc1S(=O)(=O)Oc1ccccc1 |  | 85.9 |  | > 100 |  |  |  | > 100 |  | > 100 |  | 33.3 |  |  |  | > 100 |  | > 100 | 54.5
5 | ClC(=Nc1cccc2ccccc12)N(c1ccccc1)c1ccccc1 |  | > 100 |  |  |  | > 100 |  |  |  |  |  | > 100 |  |  |  | > 100 |  |  | 
6 | CCOC(=O)Cc1c(Cc2[nH]c(C(=O)OCc3ccccc3)c(CC(=O)OCC)c2CC(=O)OCC)[nH]c(C(=O)OCc2ccccc2)c1CC(=O)OCC |  | > 100 |  | > 100 |  | > 100 |  | > 100 |  | > 100 |  | > 100 |  |  |  |  |  | > 100 | > 100
7 | CC(=O)[CH-]C(=O)c1ccccc1.CC(=O)[CH-]C(=O)c1ccccc1.CCN(CC)CC[O-].CCN(CC)CC[O-].Cl.[Ti+4] | 37.8 | > 100 | 35.2 | > 100 | 17.1 | 43 | 27.2 | 76.5 | 38.8 | > 100 | 45.5 | > 100 | 23 | 62.4 | 20 | 59.6 | 27.9 | > 100 | 
8 | COc1cc(C(=O)O)c([N+](=O)[O-])c(OC)c1OC |  |  |  | > 100 |  | > 100 |  | > 100 |  | > 100 |  | > 100 |  | > 100 |  | > 100 |  | > 100 | 
9 | CC(=O)Oc1c(C)n(CCCl)ccc1=O |  | > 100 |  | > 100 |  | > 100 |  |  |  | > 100 |  | > 100 |  | > 100 |  | > 100 |  | > 100 | > 100
10 | CC(Cl)(/C=C/Cl)C(Cl)/C=C/C(Cl)(CCl)CBr (stereo not drawn) |  | 14.2 |  | 11.3 |  | 3.33 |  |  |  | 13.2 |  | 10.8 |  | 22.9 |  | 20.8 |  | 25.1 | 11.3
